Reference: patent US20070009563A1, “PROCESS FOR COATING FIBER OR FABRIC WITH INSECTICIDE USING A TEMPERATURE OF 150°C-190°C FOR DRYING” (priority 2005, published 2007)

What was measured:
mosquitoes = experiment: Efficiency test for mosquito net dipped in insecticide: 3 minutes contact, knock down and mortality; assay type: in vivo; conditions: for % KD, After Washing 5 Times / % mort., After Washing 5 Times: after 5 washes; for % KD, After Washing 5 Times / % KD, After Washing 10 Times / % KD, After Washing 15 Times / % KD, After Washing 20 Times / % KD, Before Washing: knock down after 60 minutes; for % mort., After Washing 5 Times / % mort., After Washing 10 Times / % mort., After Washing 15 Times / % mort., After Washing 20 Times / % mort., Before Washing: mortality after 24 hours; for % KD, After Washing 10 Times / % mort., After Washing 10 Times: after 10 washes; for % KD, After Washing 15 Times / % mort., After Washing 15 Times: after 15 washes; for % KD, After Washing 20 Times / % mort., After Washing 20 Times: after 20 washes
Protocol: The efficiency test for mosquito net dipped in insecticide/insect repellent is done by letting mosquitoes rest on the mosquito net for 3 minutes and then catching the mosquitoes, placing them in a clean container, and observing them to see which of the following conditions apply:
1. % Knock down (% KD): the number of mosquitoes that cannot move after 60 minutes, in some embodiments, must be more than 80%.
2. Mortality (% mort.): the mortality rate of mosquitoes after 24 hours, in some embodiments, must be more than 95%.

insects = conditions: with small dosages; cited from earlier work
[1] = Quantity of deltamethrin on mosquito net fabric before and after washing (WHO washing procedure standard); assay type: physicochemical; conditions: for Deltamethrin on the fabric, After Washing 5 Times: after 5 washes; for Deltamethrin on the fabric, After Washing 10 Times: after 10 washes; for Deltamethrin on the fabric, After Washing 15 Times: after 15 washes; for Deltamethrin on the fabric, After Washing 20 Times: after 20 washes
Text: In addition, the temperatures used for drying the fabric in the manufacturing process affect washing resistance. That is, the fabric which is dried at higher temperature can resist washing better than the fabric that is dried at lower temperature.

[2] = Quantity of deltamethrin on mosquito net fabric after drying at various temperatures; assay type: physicochemical; conditions: polyester net coated at 55 mg/m^2
Protocol: High temperatures in the range of 150° C.-190° C. are used in the process of fabric drying according to the present invention to create fiber stability and strengthen chemicals used for stabilizing that fiber in order to make the insecticide adhere to the fiber. However, this temperature range affects the insecticide degradation. For example, coating of a polyester mosquito net with deltamethrin requires a deltamethrin concentration of 55 mg/m^2. The material is then dried at various temperatures using the same length of time for drying.
The ratio of deltamethrin degradation is also affected by the length of time for drying.

Structure (SMILES): CC1(C)[C@H](C(=O)O[C@H](C#N)c2cccc(Oc3ccccc3)c2)[C@@H]1C=C(Br)Br [deltamethrin, Deltamethrin]
- % KD, After Washing 5 Times (mosquitoes; drying temperature 150 °C): 100%
- % mort., After Washing 5 Times (mosquitoes; drying temperature 150 °C): 100%
- % KD, After Washing 10 Times (mosquitoes; drying temperature 150 °C): 100%
- % mort., After Washing 10 Times (mosquitoes; drying temperature 150 °C): 100%
- % KD, After Washing 15 Times (mosquitoes; drying temperature 150 °C): 100%
- % mort., After Washing 15 Times (mosquitoes; drying temperature 150 °C): 90%
- % KD, After Washing 20 Times (mosquitoes; drying temperature 150 °C): 95%
- % mort., After Washing 20 Times (mosquitoes; drying temperature 150 °C): 82%
- % KD, Before Washing (mosquitoes; drying temperature 150 °C): 100%
- % mort., Before Washing (mosquitoes; drying temperature 150 °C): 100%
- % KD, After Washing 5 Times (mosquitoes; drying temperature 160 °C): 100%
- % mort., After Washing 5 Times (mosquitoes; drying temperature 160 °C): 100%
- % KD, After Washing 10 Times (mosquitoes; drying temperature 160 °C): 100%
- % mort., After Washing 10 Times (mosquitoes; drying temperature 160 °C): 96%
- % KD, After Washing 15 Times (mosquitoes; drying temperature 160 °C): 100%
- % mort., After Washing 15 Times (mosquitoes; drying temperature 160 °C): 90%
- % KD, After Washing 20 Times (mosquitoes; drying temperature 160 °C): 96%
- % mort., After Washing 20 Times (mosquitoes; drying temperature 160 °C): 80%
- % KD, Before Washing (mosquitoes; drying temperature 160 °C): 100%
- % mort., Before Washing (mosquitoes; drying temperature 160 °C): 100%
- % KD, After Washing 5 Times (mosquitoes; drying temperature 170 °C): 100%
- % mort., After Washing 5 Times (mosquitoes; drying temperature 170 °C): 100%
- % KD, After Washing 10 Times (mosquitoes; drying temperature 170 °C): 100%
- % mort., After Washing 10 Times (mosquitoes; drying temperature 170 °C): 100%
- % KD, After Washing 15 Times (mosquitoes; drying temperature 170 °C): 100%
- % mort., After Washing 15 Times (mosquitoes; drying temperature 170 °C): 90%
- % KD, After Washing 20 Times (mosquitoes; drying temperature 170 °C): 95%
- % mort., After Washing 20 Times (mosquitoes; drying temperature 170 °C): 82%
- % KD, Before Washing (mosquitoes; drying temperature 170 °C): 100%
- % mort., Before Washing (mosquitoes; drying temperature 170 °C): 100%
- % KD, After Washing 5 Times (mosquitoes; drying temperature 180 °C): 100%
- % mort., After Washing 5 Times (mosquitoes; drying temperature 180 °C): 82%
- % KD, After Washing 10 Times (mosquitoes; drying temperature 180 °C): 95%
- % mort., After Washing 10 Times (mosquitoes; drying temperature 180 °C): 62%
- % KD, After Washing 15 Times (mosquitoes; drying temperature 180 °C): 82%
- % mort., After Washing 15 Times (mosquitoes; drying temperature 180 °C): 22%
- % KD, After Washing 20 Times (mosquitoes; drying temperature 180 °C): 84%
- % mort., After Washing 20 Times (mosquitoes; drying temperature 180 °C): 0%
- % KD, Before Washing (mosquitoes; drying temperature 180 °C): 100%
- % mort., Before Washing (mosquitoes; drying temperature 180 °C): 98%
- % KD, After Washing 5 Times (mosquitoes; drying temperature 190 °C): 100%
- % mort., After Washing 5 Times (mosquitoes; drying temperature 190 °C): 68%
- % KD, After Washing 10 Times (mosquitoes; drying temperature 190 °C): 95%
- % mort., After Washing 10 Times (mosquitoes; drying temperature 190 °C): 18%
- % KD, After Washing 15 Times (mosquitoes; drying temperature 190 °C): 44%
- % mort., After Washing 15 Times (mosquitoes; drying temperature 190 °C): 0%
- % KD, After Washing 20 Times (mosquitoes; drying temperature 190 °C): 16%
- % mort., After Washing 20 Times (mosquitoes; drying temperature 190 °C): 0%
- % KD, Before Washing (mosquitoes; drying temperature 190 °C): 100%
- % mort., Before Washing (mosquitoes; drying temperature 190 °C): 96%
- effectiveness relative to permethrin (insects): more than 30 times
- Deltamethrin on the fabric, After Washing 5 Times ([1]; drying temperature 150 °C): 40 mg/m^2
- Deltamethrin on the fabric, After Washing 10 Times ([1]; drying temperature 150 °C): 32 mg/m^2
- Deltamethrin on the fabric, After Washing 15 Times ([1]; drying temperature 150 °C): 16 mg/m^2
- Deltamethrin on the fabric, After Washing 20 Times ([1]; drying temperature 150 °C): 10 mg/m^2
- Deltamethrin on the fabric, Before Washing ([1]; drying temperature 150 °C): 55 mg/m^2
- Deltamethrin on the fabric, After Washing 5 Times ([1]; drying temperature 160 °C): 42 mg/m^2
- Deltamethrin on the fabric, After Washing 10 Times ([1]; drying temperature 160 °C): 36 mg/m^2
- Deltamethrin on the fabric, After Washing 15 Times ([1]; drying temperature 160 °C): 19 mg/m^2
- Deltamethrin on the fabric, After Washing 20 Times ([1]; drying temperature 160 °C): 12 mg/m^2
- Deltamethrin on the fabric, Before Washing ([1]; drying temperature 160 °C): 55 mg/m^2
- Deltamethrin on the fabric, After Washing 5 Times ([1]; drying temperature 170 °C): 44 mg/m^2
- Deltamethrin on the fabric, After Washing 10 Times ([1]; drying temperature 170 °C): 38 mg/m^2
- Deltamethrin on the fabric, After Washing 15 Times ([1]; drying temperature 170 °C): 22 mg/m^2
- Deltamethrin on the fabric, After Washing 20 Times ([1]; drying temperature 170 °C): 16 mg/m^2
- Deltamethrin on the fabric, Before Washing ([1]; drying temperature 170 °C): 55 mg/m^2
- Deltamethrin on the fabric, After Washing 5 Times ([1]; drying temperature 180 °C): 26 mg/m^2
- Deltamethrin on the fabric, After Washing 10 Times ([1]; drying temperature 180 °C): 20 mg/m^2
- Deltamethrin on the fabric, After Washing 15 Times ([1]; drying temperature 180 °C): 16 mg/m^2
- Deltamethrin on the fabric, After Washing 20 Times ([1]; drying temperature 180 °C): 4 mg/m^2
- Deltamethrin on the fabric, Before Washing ([1]; drying temperature 180 °C): 37 mg/m^2
- Deltamethrin on the fabric, After Washing 5 Times ([1]; drying temperature 190 °C): 19 mg/m^2
- Deltamethrin on the fabric, After Washing 10 Times ([1]; drying temperature 190 °C): 15 mg/m^2
- Deltamethrin on the fabric, After Washing 15 Times ([1]; drying temperature 190 °C): 8 mg/m^2
- Deltamethrin on the fabric, After Washing 20 Times ([1]; drying temperature 190 °C): 4 mg/m^2
- Deltamethrin on the fabric, Before Washing ([1]; drying temperature 190 °C): 25 mg/m^2
- Deltamethrin on the fabric of mosquito net after drying ([2]; drying temperature 150 °C): 55 mg/m^2
- Deltamethrin on the fabric of mosquito net after drying ([2]; drying temperature 160 °C): 55 mg/m^2
- Deltamethrin on the fabric of mosquito net after drying ([2]; drying temperature 170 °C): 55 mg/m^2
- Deltamethrin on the fabric of mosquito net after drying ([2]; drying temperature 180 °C): 37 mg/m^2
- Deltamethrin on the fabric of mosquito net after drying ([2]; drying temperature 190 °C): 25 mg/m^2
